Results on four molecules are retold here after patent US4382871A, “Detergent compositions” (Lever Brothers Company, priority 1980, dated 1983).

A value given as a limit tells only on which side of the number the result lay.

The nature of series [1]: acute oral toxicity (LD50) in Webster mice. Type of series: in vivo. Conditions: mouse, in vivo, read-out: LD50 (dosage which is lethal for 50% of the mice). From the text: (§1) As stated above, a particular advantage of the builders of the present invention over the salts of unsubstituted oxydiacetic acid, is their lower toxicity. For example, using Webster mice, the acute oral toxicity data, (LD50), i.e., the dosage in grams per kilogram of body weight which is lethal for 50% of the mice, for two of the preferred embodiments compared to disodium oxydiacetate are as follows: […]

The test system of series [2] is Webster mice. The series can be described thus: acute oral toxicity (LD50) in Webster mice. The series is classed as in vivo. To be noted: from LD50.
Description: as §1

The conditions of series [3]: if accidentally swallowed; cited from earlier work.

A word on the LD50: it is the dose at which mortality reaches 50%. Take `CC(OC(C)C(=O)[O-])C(=O)[O-].[Na+].[Na+]` (stereo not shown): the median lethal dose (LD50) in series [1] is more than 5000 mg/kg. For the same molecule, the “Remarks (toxicity classification)” value in series [2] is reported as “non-toxic”.

Consider trisodium polyphosphate, for which the emetic properties entry in series [3] was “emetic properties”.

Regarding `O=C([O-])COCC(=O)[O-].[Na+].[Na+]` [reference compound], the LD50 in series [1] is 2850 mg/kg. Further, the “Remarks (toxicity classification)” value in series [2] is “slightly toxic”.

Take `CC(OCC(=O)[O-])C(=O)[O-].[Na+].[Na+]` (stereo not shown): in series [1], the 50% lethal dose (LD50) is more than 5000 mg/kg. Besides, the “Remarks (toxicity classification)” value in series [2] is reported as “non-toxic”.
